Measured values: the supplement of paper PMC11451515

System: NOMO1
Experiment: cell viability relative to DMSO control; higher = less cytotoxic
Conditions: 48 h
Outline: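 Viability is expressed as a percentage of DMSO wells within each plate, and cell-free wells serve as background. Seeding densities in the 1536-well plates (5 μl) were 500 cells/well for NOMO1 or SEM leukemia cells and 1000 cells/well for P12-Ichikawa. Each line was adapted for at least four passages in each medium. Library compounds in DMSO were pin-dosed at 47 μM to 0.79 nM (11 points, threefold), and CellTiter-Glo One luminescence was read after 48 h at 37°C.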

[1] = HPLM + 10% dialyzed FBS, 0.000781 µM
[2] = HPLM + 10% dialyzed FBS, 0.00234 µM
[3] = HPLM + 10% dialyzed FBS, 0.00702 µM
[4] = HPLM + 10% dialyzed FBS, 0.0211 µM
[5] = HPLM + 10% dialyzed FBS, 0.0632 µM
[6] = HPLM + 10% dialyzed FBS, 0.19 µM
[7] = HPLM + 10% dialyzed FBS, 0.569 µM
[8] = HPLM + 10% dialyzed FBS, 1.71 µM
[9] = HPLM + 10% dialyzed FBS, 5.12 µM
[10] = HPLM + 10% dialyzed FBS, 15.4 µM
[11] = HPLM + 10% dialyzed FBS, 46.1 µM
[12] = RPMI 5 mM glucose + 10% FBS, 0.000781 µM
[13] = RPMI 5 mM glucose + 10% FBS, 0.00234 µM
[14] = RPMI 5 mM glucose + 10% FBS, 0.00702 µM
[15] = RPMI 5 mM glucose + 10% FBS, 0.0211 µM
[16] = RPMI 5 mM glucose + 10% FBS, 0.0632 µM
[17] = RPMI 5 mM glucose + 10% FBS, 0.19 µM
[18] = RPMI 5 mM glucose + 10% FBS, 0.569 µM
[19] = RPMI 5 mM glucose + 10% FBS, 1.71 µM
[20] = RPMI 5 mM glucose + 10% FBS, 5.12 µM
[21] = RPMI 5 mM glucose + 10% FBS, 15.4 µM
[22] = RPMI 5 mM glucose + 10% FBS, 46.1 µM
[23] = RPMI 5 mM glucose + 10% dialyzed FBS, 0.000781 µM
[24] = RPMI 5 mM glucose + 10% dialyzed FBS, 0.00234 µM
[25] = RPMI 5 mM glucose + 10% dialyzed FBS, 0.00702 µM
[26] = RPMI 5 mM glucose + 10% dialyzed FBS, 0.0211 µM
[27] = RPMI 5 mM glucose + 10% dialyzed FBS, 0.0632 µM
[28] = RPMI 5 mM glucose + 10% dialyzed FBS, 0.19 µM
[29] = RPMI 5 mM glucose + 10% dialyzed FBS, 0.569 µM
[30] = RPMI 5 mM glucose + 10% dialyzed FBS, 1.71 µM
[31] = RPMI 5 mM glucose + 10% dialyzed FBS, 5.12 µM
[32] = RPMI 5 mM glucose + 10% dialyzed FBS, 15.4 µM
[33] = RPMI 5 mM glucose + 10% dialyzed FBS, 46.1 µM

Structure (SMILES)	cell viability [1] [%]	cell viability [2] [%]	cell viability [3] [%]	cell viability [4] [%]	cell viability [5] [%]	cell viability [6] [%]	cell viability [7] [%]	cell viability [8] [%]	cell viability [9] [%]	cell viability [10] [%]	cell viability [11] [%]	cell viability [12] [%]	cell viability [13] [%]	cell viability [14] [%]	cell viability [15] [%]	cell viability [16] [%]	cell viability [17] [%]	cell viability [18] [%]	cell viability [19] [%]	cell viability [20] [%]	cell viability [21] [%]	cell viability [22] [%]	cell viability [23] [%]	cell viability [24] [%]	cell viability [25] [%]	cell viability [26] [%]	cell viability [27] [%]	cell viability [28] [%]	cell viability [29] [%]	cell viability [30] [%]	cell viability [31] [%]	cell viability [32] [%]	cell viability [33] [%]
c1ccc(-c2oc3ncnc(NC[C@@H]4CCCO4)c3c2-c2ccccc2)cc1	114	113	134	113	134	128	123	126	112	103	62	102	110	112	114	120	120	117	109	110	112	63.8											
CC(C)Oc1ccc(C(=O)N[C@H](CNC(=O)CN(C)C)Cc2ccc(-c3cn4cccc([C@H](C)O)c4n3)cc2)cc1Cl	123	131	108	123	103	99.8	113	32.6	33.1	23.6	32.5	104	107	112	113	113	98.5	87	24.8	19.7	14.6	21.6	107	124	112	125	113	109	100	39.4	25.6	20.1	24.8
Cc1onc(-c2ccccc2)c1C(=O)N[C@@H]1C(=O)N2[C@@H]1SC(C)(C)[C@@H]2C(=O)[O-].[Na+]	120	131	105	113	134	98.5	95.5	64.5	77.8	51.1	54.7	112	111	117	104	112	103	101	79.5	77.7	84.7	56.8	111	109	115	114	101	97.4	98.6	88.9	72.2	67.1	53.8
C[C@H]1O[C@H](C[C@H](O)[C@@H]1O)O[C@H]2[C@@H](O)C[C@@H](O[C@@H]2C)O[C@H]3[C@@H](O)C[C@@H](O[C@@H]3C)O[C@H]4CC[C@@]5(C)[C@H](CC[C@@H]6[C@@H]5C[C@@H](O)[C@]7(C)[C@H](CC[C@]67O)C/8=C/C(=O)OC8)C4	120	119	136	138	97.2	25.3	12.2	8.48	8.1	7.39	5.28	113	112	120	107	107	95.8	21.9	9.57	11	12.1	9.59	120	121	109	115	114	57.2	13.5	7.93	7.1	7.81	7.62
N=C1N[C@H]2[C@H](CS[C@H]2CCCCC(=O)O)N1	86.7	115	121	120	139	126	146	129	138	118	137	113	114	110	109	111	123	107	117	112	120	110	109	122	119	132	121	135	121	131	119	143	136
CC[C@]1(O)C[C@@H]2CN(CCc3c([nH]c4ccccc34)[C@@](C(=O)OC)(c3cc4c(cc3OC)N(C)[C@H]3[C@@](O)(C(N)=O)[C@H](O)[C@]5(CC)C=CCN6CC[C@]43[C@@H]65)C2)C1												110	113	132	103	96.4	25.3	21.1	25.8	21.4	22.8	21	116	114	106	122	121	44.6	24.6	28.2	24.2	23.6	20.7
CO/N=C(\C(=O)N[C@@H]1C(=O)N2C(C(=O)OCOC(=O)C(C)(C)C)=C(/C=C\c3scnc3C)CS[C@H]12)c1csc(N)n1	81.6	111	103	93.3	102	87.7	109	102	106	81.7	42.9	81	106	92.8	98.9	104	104	99.4	92.5	95	84.6	58.2	72.8	83.9	88	80.9	91.1	83.9	96.2	99.1	88	70	48.6
CC(C)OC1=CC=C2C(=C1)O\C=C(/C2=O)C3=CC=CC=C3	116	119	130	143	151	120	122	105	108	123	120																						
CNC(=O)[C@H](CC/1=C/N=C\2/C=C\C\C=C12)NC(=O)[C@H](CC(C)C)CC(=O)NO	108	102	113	111	120	124	123	88.3	78.6	25.4	25.6	99.5	109	89.2	102	113	103	97	97.3	97.4	11.9	14.1	114	124	112	111	120	113	109	113	112	21.1	22.5
COc1cc(CNC(=O)CCCC/C=C/C(C)C)ccc1O	111	116	113	123	114	112	71.5	77	79.1	60.9	47.2	101	99.6	95	115	104	114	90.6	45.9	36.6	41.1	36.4	102	97.8	103	98.5	106	101	99.5	55.3	52	50.4	59.7
COc1cc(O)c2c(c1)C(=O)c1cc(C)cc(O)c1C2=O												107	119	111	115	102	113	101	110	105	92.3	31.2	115	114	110	110	120	118	109	119	120	85.4	24.3
CC(O)C1C2C(C)\C(=C(/N2C1=O)C(O)=O)SC3CNC(C3)C(=O)N(C)C (stereo not drawn)	75.7	78.3	85.5	94.8	99	82.5	87.7	97.5	82.8	81.7	88.7	86.1	84.1	85.2	89.1	81.7	84.4	82.5	81.6	82.8	88.4	86.3	68.1	73.9	72.6	84.1	84.2	86.2	85.6	88.4	82.6	91.5	91
CCN(c1ccccc1)c1cc(NC)[n+](C)c(C)n1	121	123	109	120	130	115	116	123	107	109	111	115	104	106	110	101	104	123	122	112	95.5	103	106	111	112	124	122	116	126	113	103	108	108
CO/N=C(/C(=O)N[C@@H]1C(=O)N2C(C(=O)O)=C(CSC(=O)c3ccco3)CS[C@H]12)c1csc(N)n1	81.5	106	116	102	113	103	109	85.5	64.8	53	48.8	89.4	104	99.4	98.6	103	103	109	92.5	90.9	73.8	77.2	82.9	97.4	99.9	111	104	101	111	103	82.5	81.3	58.5
O=C(/C=C/c1ccc(O)cc1)c1ccc(O)cc1O	138	116	117	110	104	126	128	97.2	106	82.4	46.8	112	105	101	109	113	110	119	98.8	103	96.1	86.6	120	103	109	106	107	110	110	88.4	102	109	70.2
C[C@@H](O)[C@@H]1NC(=O)[C@H](CCCCN)NC(=O)[C@@H](Cc2c[nH]c3ccccc23)NC(=O)[C@H](Cc2ccccc2)NC(=O)[C@@H](NC(=O)[C@H](N)Cc2ccccc2)CSSC[C@@H](C(=O)N[C@H](CO)[C@@H](C)O)NC1=O	75.7	75	90	88.1	103	83.6	91.8	82.5	74.2	81.8	75.9	74.6	79.4	83.1	79.3	83.3	81.6	84.5	76.8	80.7	81.1	83.5	86.9	89	87	92.2	93.6	85.3	101	92.5	91.2	103	112
